According to patent US12492173B2, “Herbicidal substituted N-tetrazolyl aryl carboxamides” (Bayer Aktiengesellschaft, priority 2019, dated 2025):

Assays:
Format in all cases: in vivo
Abutilon theophrasti = test: Pre-emergence herbicidal action, ABUTH; settings: dosage 320 g/ha, scored visually after 3 weeks vs untreated controls (100% = plants have died)
Summary of the method: (§1)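 Herbicidal activity is expressed in percent, scored by eye after a 3-week greenhouse period, with 0% matching untreated plants and 100% meaning death. Compounds, as wettable powders or emulsion concentrates, are applied pre-emergence to the covering soil.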

Echinochloa crus-galli = test: Post-emergence herbicidal action, ECHCG; set-up: key: % herbicidal action vs untreated; 100 = plants died, 0 = like control; settings: for herbicidal action ECHCG: Dosage 80 g/ha
Summary of the method: (§2)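 Visual % damage versus untreated plants, scored about 3 weeks post-spray (100% = dead, 0% = like control). Greenhouse plants in sandy loam were treated at one-leaf stage with WP/EC formulations in water at 600 to 800 l/ha plus 0.2% wetting agent.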

Matricaria inodora = test: Post-emergence herbicidal action, MATIN; set-up: key: % herbicidal action vs untreated; 100 = plants died, 0 = like control; settings: for herbicidal action MATIN: Dosage 80 g/ha; for Herbicidal action against MATIN: post-emergence
Summary of the method: as §2

Pharbitis purpurea = test: Pre-emergence herbicidal action, PHBPU; settings: for herbicidal activity PHBPU: dosage 320 g/ha, scored visually after 3 weeks vs untreated controls (100% = plants have died)
Summary of the method: as §1

With `COc1c(C(=O)Nc2nnnn2C)ccc(C(F)(F)F)c1CSC` [Example 1-134] the “herbicidal activity ABUTH” value (Abutilon theophrasti) was 100%, the “herbicidal action ECHCG” value (Echinochloa crus-galli) was 100 and the “Herbicidal action against ECHCG” value (Echinochloa crus-galli; post-emergence, dosage 80 g/ha) was 90. For the same compound, the “herbicidal action MATIN” value (Matricaria inodora) was 100, the “Herbicidal action against MATIN” value (Matricaria inodora; comparative experiment, 5 g of a.i./ha) was 90 and the “Herbicidal action against MATIN” value (Matricaria inodora; dosage 80 g/ha) was 100. The “Herbicidal action against PHBPU” value (Pharbitis purpurea; comparative experiment, 20 g of a.i./ha) was 20 and the “herbicidal activity PHBPU” value (Pharbitis purpurea) was 80%.
For `CCCn1nnnc1NC(=O)c1ccc(C(F)(F)F)c(CS(=O)(=O)CC)c1C` [Example 3-88], the “herbicidal activity ABUTH” value (Abutilon theophrasti) was 100%, the “herbicidal action ECHCG” value (Echinochloa crus-galli) was 90 and the “herbicidal action MATIN” value (Matricaria inodora) was 90. The “herbicidal activity PHBPU” value (Pharbitis purpurea) was 90%.
For `CCn1nnnc1NC(=O)c1ccc(C(F)(F)F)c(CS(C)(=O)=O)c1SC` [Example 2-163], the “herbicidal activity ABUTH” value (Abutilon theophrasti) was 100%, the “herbicidal action ECHCG” value (Echinochloa crus-galli) was 100 and the “herbicidal action MATIN” value (Matricaria inodora) was 100. The “herbicidal activity PHBPU” value (Pharbitis purpurea) was 90%.
For `Cn1nnnc1NC(=O)c1ccc(C(F)(F)F)c(C[S+](C)[O-])c1F` (stereo not drawn) [Example 1-243], the “herbicidal activity ABUTH” value (Abutilon theophrasti) was 100%, the “herbicidal action ECHCG” value (Echinochloa crus-galli) was 100 and the “herbicidal action MATIN” value (Matricaria inodora) was 100. For the same compound, the “herbicidal activity PHBPU” value (Pharbitis purpurea) was 80%.
For `CCCn1nnnc1NC(=O)c1ccc(C(F)(F)F)c(CS(C)(=O)=O)c1OC` [Example 3-136], the “herbicidal activity ABUTH” value (Abutilon theophrasti) was 100% and the “herbicidal action ECHCG” value (Echinochloa crus-galli) was 100.
`CCn1nnnc1NC(=O)c1ccc(C)c(CSC)c1Cl` [Example 2-287] was tested, and the “herbicidal action ECHCG” value (Echinochloa crus-galli) was 100 and the “herbicidal action MATIN” value (Matricaria inodora) was 100.
`CCS(=O)(=O)Cc1c(C(F)(F)F)ccc(C(=O)Nc2nnnn2C)c1Cl` [Example 1-301] was tested, and the “herbicidal activity ABUTH” value (Abutilon theophrasti) was 100%, the “herbicidal action ECHCG” value (Echinochloa crus-galli) was 90 and the “herbicidal action MATIN” value (Matricaria inodora) was 90. For the same compound, the “herbicidal activity PHBPU” value (Pharbitis purpurea) was 100%.
For `CCCn1nnnc1NC(=O)c1ccc(C(F)F)c(CSC)c1C` [Example 3-107], the “herbicidal activity ABUTH” value (Abutilon theophrasti) was 100%, the “herbicidal action ECHCG” value (Echinochloa crus-galli) was 90 and the “herbicidal action MATIN” value (Matricaria inodora) was 90.
`Cn1nnnc1NC(=O)c1ccc(C(F)(F)F)c(CS(C)(=O)=O)c1Br` [Example 1-382, 2-bromo-3-[(methylsulfonyl)methyl]-N-(1-methyl-1H-tetrazol-5-yl)-4-(trifluoromethyl)benzamide] was tested, and the “herbicidal activity ABUTH” value (Abutilon theophrasti) was 100%, the “herbicidal action ECHCG” value (Echinochloa crus-galli) was 90 and the “herbicidal action MATIN” value (Matricaria inodora) was 100.
With `CCn1nnnc1NC(=O)c1ccc(C(F)(F)F)c(C[S+](C)[O-])c1OC` (stereo not drawn) [Example 2-135] the “herbicidal activity ABUTH” value (Abutilon theophrasti) was 100%, the “herbicidal action ECHCG” value (Echinochloa crus-galli) was 100 and the “herbicidal action MATIN” value (Matricaria inodora) was 100.
With `CCCn1nnnc1NC(=O)c1ccc(C(F)(F)F)c(CSC)c1OC` [Example 3-134] the “herbicidal activity ABUTH” value (Abutilon theophrasti) was 100%, the “herbicidal action ECHCG” value (Echinochloa crus-galli) was 100 and the “herbicidal action MATIN” value (Matricaria inodora) was 100.
`Cc1ccc(C(=O)Nc2nnnn2C)c(Cl)c1CS(C)(=O)=O` [Example 1-289] was tested, and the “herbicidal activity ABUTH” value (Abutilon theophrasti) was 90%, the “herbicidal action ECHCG” value (Echinochloa crus-galli) was 100 and the “herbicidal action MATIN” value (Matricaria inodora) was 100.
For `CCn1nnnc1NC(=O)c1ccc(C(F)F)c(CSC)c1C` [Example 2-107], the “herbicidal activity ABUTH” value (Abutilon theophrasti) was 100%, the “herbicidal action ECHCG” value (Echinochloa crus-galli) was 90 and the “herbicidal action MATIN” value (Matricaria inodora) was 90.
With `CCCn1nnnc1NC(=O)c1ccc(C(F)(F)F)c(CSC)c1Br` [Example 3-380] the “herbicidal activity ABUTH” value (Abutilon theophrasti) was 100%, the “herbicidal action ECHCG” value (Echinochloa crus-galli) was 90 and the “herbicidal action MATIN” value (Matricaria inodora) was 100. The “herbicidal activity PHBPU” value (Pharbitis purpurea) was 90%.
In the case of `Cn1nnnc1NC(=O)c1ccc(C(F)(F)F)c(CS(C)(=O)=O)c1F` [Example 1-244], the “herbicidal activity ABUTH” value (Abutilon theophrasti) is reported as 100%, the “herbicidal action ECHCG” value (Echinochloa crus-galli) is reported as 90 and the “herbicidal action MATIN” value (Matricaria inodora) is reported as 100. For the same compound, the “herbicidal activity PHBPU” value (Pharbitis purpurea) was 90%.
`CCn1nnnc1NC(=O)c1ccc(C(F)(F)F)c(CS(C)(=O)=O)c1OC` [Example 2-136] was tested, and the “herbicidal activity ABUTH” value (Abutilon theophrasti) was 100%, the “herbicidal action ECHCG” value (Echinochloa crus-galli) was 100 and the “herbicidal action MATIN” value (Matricaria inodora) was 100.
`CCCn1nnnc1NC(=O)c1ccc(C(F)F)c(CSC)c1Cl` [Example 3-320] was tested, and the “herbicidal activity ABUTH” value (Abutilon theophrasti) was 100%, the “herbicidal action ECHCG” value (Echinochloa crus-galli) was 100 and the “herbicidal action MATIN” value (Matricaria inodora) was 100.
